Experimental data from ChEMBL document CHEMBL4368935, “Binding of thiazolidinediones to the endoplasmic reticulum protein nutrient-deprivation autophagy factor-1” (Bioorg Med Chem Lett, 2019).
Active and inactive are the calls of the source. No cut-off for these calls is given here.

Legend:
[1] = biological target: T1, CDGSH iron-sulfur domain-containing protein 2 (Homo sapiens) (UniProt Q8N5K1); assay: Binding affinity to NAF1 in human HepG2 cells assessed as inhibition of mitochondrial respiration at 30 uM; type: cell-based
T1 sequence (whole entry): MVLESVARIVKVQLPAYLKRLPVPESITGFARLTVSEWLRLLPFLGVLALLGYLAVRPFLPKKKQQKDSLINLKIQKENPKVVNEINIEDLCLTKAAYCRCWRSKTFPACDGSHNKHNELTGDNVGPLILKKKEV

[2] = biological target: T2, CDGSH iron-sulfur domain-containing protein 2 (Homo sapiens, UniProt Q8N5K1); assay: Binding affinity to recombinant human N-terminal His6-tagged NAF1 expressed in Escherichia coli by scintillation proximity assay
T2 sequence (Q8N5K1 whole entry): T1 sequence (whole entry)

[3] = biological target: T1, CDGSH iron-sulfur domain-containing protein 2 (Homo sapiens); assay: Binding affinity to NAF1 (unknown origin) expressed in human HepG2 cells assessed as inhibition of mitochondrial respiration at 30 uM; type: cell-based
[4] = biological target: T1, CDGSH iron-sulfur domain-containing protein 2 (Homo sapiens); assay: Binding affinity to NAF1 (unknown origin) expressed in human HepG2 cells assessed as increase in mitochondrial respiration at 30 uM relative to wild-type cells; type: cell-based

Row | inhibition [1] | IC50 [2] [µM] | inhibition [3] | SMILES | Activity [4] [%]
1 | Active | 29.8 | Active | CC(C)(C)c1cc(CC2SC(=O)N=C2O)cc(C(C)(C)C)c1O (stereo not given) | 
2 | Active | 2.29 | Active | CN(CCOc1ccc(CC2SC(=O)NC2=O)cc1)c1ccccn1 (stereo not given) [ROSIGLITAZONE] | 

Row | SMILES | inhibition [1] | IC50 [2] [µM] | inhibition [3] | Activity [4] [%]
3 | CCc1ccc(CCOc2ccc(CC3SC(=O)NC3=O)cc2)nc1 (stereo not given) [PIOGLITAZONE] | Active | 4.8 | Active | 13
